# Measurements reported in ChEMBL document CHEMBL6071160, “Identification of a novel 10-hydroxyevodiamine prodrug as a potent topoisomerase inhibitor with improved aqueous solubility for treatment of hepatocellular carcinoma” (Eur J Med Chem, 2024).
# Active and inactive are the calls of the source. No cut-off for these calls is given here.
# Assays:
# [1] = system: Huh-7; assay: Antiproliferative activity against human Huh-7 cells assessed as inhibition of colony formation at 10 to 40 nM measured 1 to 2 weeks by human tumor clonogenic assays (HTCA); format: functional, cell-based; conditions: dose 10-40 nM, time 1-2 weeks
# [2] = Half life in Sprague-Dawley rat at 10 mg/kg, ip measured upto 24 hrs by LC-MS/MS analysis; format: ADME, organism-based; conditions: in vivo
# [3] = system: Huh-7; assay: In vivo antitumor activity against human Huh-7 cells subcutaneously injected into BALB/C nude mouse assessed as tumor growth inhibition at 10 mg/kg, ip administered once daily measured after 14 days; format: functional; conditions: Huh-7, 336 h, time 14 day, read-out: TGI
# [4] = system: Huh-7; assay: In vivo antitumor activity against human Huh-7 cells subcutaneously injected into BALB/C nude mouse assessed as tumor growth inhibition at 40 mg/kg, ip administered once other day measured after 14 days; format: functional; conditions: Huh-7, 336 h, time 14 day, read-out: TGI
# [5] = Toxicity in BALB/c nude mouse subcutaneously injected with human Huh-7 cells assessed as change in body weight at 10 mg/kg, ip administered once daily measured after 14 days; format: organism-based; conditions: in vivo, 336 h, time 14 day
# [6] = system: Huh-7; assay: Induction of cell cycle arrest in human Huh-7 cells assessed as accumulation of cells at S phase 80 nM measured after 24 hrs by flow cytometric assay (reference value: 23.33%); format: functional
# [7] = system: Huh-7; assay: Induction of cell cycle arrest in human Huh-7 cells assessed as accumulation of cells at G2 phase 20 nM measured after 24 hrs by flow cytometric assay (reference value: 13.66%); format: functional
# [8] = system: Huh-7; assay: Induction of cell cycle arrest in human Huh-7 cells assessed as accumulation of cells at S phase 40 nM measured after 24 hrs by flow cytometric assay (reference value: 23.33%); format: functional
# [9] = system: SK-HEP1; assay: Induction of cell cycle arrest in human SK-HEP1 cells assessed as accumulation of cells at G2 phase 20 nM measured after 24 hrs by flow cytometric assay (reference value: 22.41%); format: functional
# [10] = system: SK-HEP1; assay: Induction of cell cycle arrest in human SK-HEP1 cells assessed as accumulation of cells at S phase 20 nM measured after 24 hrs by flow cytometric assay (reference value: 30.04%); format: functional
# [11] = system: SK-HEP1; assay: Induction of cell cycle arrest in human SK-HEP1 cells assessed as accumulation of cells at S phase 40 nM measured after 24 hrs by flow cytometric assay (reference value: 30.04%); format: functional
# [12] = system: Huh-7; assay: Induction of apoptosis in human Huh-7 cells assessed as early apoptotic cells at 80 nM measured after 24 hrs by Annexin-V-FITC/PI analysis (reference value: 1.04%); format: functional
# [13] = system: Huh-7; assay: Induction of apoptosis in human Huh-7 cells assessed as viable cells at 20 nM measured after 24 hrs by Annexin-V-FITC/PI analysis (reference value: 97.46%); format: functional; conditions: read-out: Activity
# [14] = system: Huh-7; assay: Induction of apoptosis in human Huh-7 cells assessed as late apoptotic cells at 20 nM measured after 24 hrs by Annexin-V-FITC/PI analysis (reference value: 1.23%); format: functional
# [15] = system: Huh-7; assay: Induction of apoptosis in human Huh-7 cells assessed as early apoptotic cells at 40 nM measured after 24 hrs by Annexin-V-FITC/PI analysis (reference value: 1.04%); format: functional
# [16] = system: Huh-7; assay: Induction of apoptosis in human Huh-7 cells assessed as late apoptotic cells at 40 nM measured after 24 hrs by Annexin-V-FITC/PI analysis (reference value: 1.23%); format: functional
# [17] = system: SK-HEP1; assay: Induction of apoptosis in human SK-HEP1 cells assessed as early apoptotic cells at 80 nM measured after 24 hrs by Annexin-V-FITC/PI analysis (reference value: 1.45%); format: functional
# [18] = system: SK-HEP1; assay: Induction of apoptosis in human SK-HEP1 cells assessed as early apoptotic cells at 20 nM measured after 24 hrs by Annexin-V-FITC/PI analysis (reference value: 1.45%); format: functional
# [19] = system: SK-HEP1; assay: Induction of apoptosis in human SK-HEP1 cells assessed as late apoptotic cells at 20 nM measured after 24 hrs by Annexin-V-FITC/PI analysis (reference value: 0.64%); format: functional
# [20] = system: SK-HEP1; assay: Induction of apoptosis in human SK-HEP1 cells assessed as viable cells at 40 nM measured after 24 hrs by Annexin-V-FITC/PI analysis (reference value: 97.20%); format: functional; conditions: read-out: Activity
# [21] = system: SK-HEP1; assay: Induction of apoptosis in human SK-HEP1 cells assessed as early apoptotic cells at 40 nM measured after 24 hrs by Annexin-V-FITC/PI analysis (reference value: 1.45%); format: functional
# [22] = system: Huh-7; assay: Induction of apoptosis in human Huh-7 cells assessed as loss of mitochondrial membrane potential by measuring JC-1 stained cells at 20 nM measured after 24 hrs by JC-1 staining based flow cytometry (reference value: 2.27%); format: functional
# [23] = system: SK-HEP1; assay: Induction of apoptosis in human SK-HEP1 cells assessed as loss of mitochondrial membrane potential by measuring JC-1 stained cells at 80 nM measured after 24 hrs by JC-1 staining based flow cytometry (reference value: 0.49%); format: functional
# [24] = system: Huh-7; assay: Induction of apoptosis in human Huh-7 cells assessed as ROS generation by measuring DCFH2-DA stained cells at 20 nM measured after 24 hrs […] (reference value: 0.45%); format: functional
# [25] = system: SK-HEP1; assay: Induction of apoptosis in human SK-HEP1 cells assessed as ROS generation by measuring DCFH2-DA stained cells at 40 nM measured after 24 hrs […] (reference value: 0.14%); format: functional
# [26] = system: Huh-7; assay: Inhibition of cell invasion in human Huh-7 cells assessed as decrease in number of cells migration into lower compartment at 20 nM measured after 24 hrs by transwell assay; format: functional, cell-based
# [27] = system: SK-HEP1; assay: Inhibition of cell migration in human SK-HEP1 cells at 40 nM measured for 24 hrs by scratch wound healing assay; format: functional, cell-based
# [28] = system: SK-HEP1; assay: Inhibition of cell migration in human SK-HEP1 cells at 10 nM measured for 24 hrs by scratch wound healing assay; format: functional, cell-based
# [29] = system: SK-HEP1; assay: Inhibition of cell migration in human SK-HEP1 cells at 20 nM measured for 24 hrs by scratch wound healing assay; format: functional, cell-based
# [30] = system: SK-HEP1; assay: Inhibition of cell invasion in human SK-HEP1 cells assessed as decrease in number of cells migration into lower compartment at 10 nM measured after 24 hrs by transwell assay; format: functional, cell-based
# [31] = system: SK-HEP1; assay: Inhibition of cell invasion in human SK-HEP1 cells assessed as decrease in number of cells migration into lower compartment at 20 nM measured after 24 hrs by transwell assay; format: functional, cell-based
# [32] = Toxicity in BALB/c nude mouse subcutaneously injected with human Huh-7 cells assessed as changes in spleen tissue at 10 mg/kg, ip administered once daily measured after 14 days by H and E staining based assay; format: organism-based; conditions: in vivo, 336 h, time 14 day
# [33] = Toxicity in BALB/c nude mouse subcutaneously injected with human Huh-7 cells assessed as change in white blood cells at 10 mg/kg, ip administered once daily measured after 14 days; format: organism-based; conditions: in vivo, 336 h, time 14 day
# [34] = Toxicity in BALB/c nude mouse subcutaneously injected with human Huh-7 cells assessed as change in body weight at 10 to 20 mg/kg, ip administered once daily measured after 14 days; format: organism-based; conditions: in vivo, 336 h, dose 10-20 mg/kg, time 14 day
smiles,measurement,setting,value
C[N+](C)(C)CCC(=O)Oc1ccc2[nH]c3c(c2c1)CCN1C(=O)c2cc(F)cc(F)c2N(c2cccc(F)c2)C31.[I-] (centres undefined),Activity,[1],Active
same,half-life,[2],3.15 h
same,inhibition in vivo at 10 mg/kg,[3],83.3%
same,inhibition in vivo at 40 mg/kg,[4],51.1%
same,Activity,[5],Non-Toxic
same,Activity,[6],6.71%
same,Activity,[7],5.93%
same,Activity,[8],21.3%
same,Activity,[9],23.61%
same,Activity,[10],28.78%
same,Activity,[11],31.15%
same,Activity,[12],7.8%
same,viability at 0.02 µM,[13],96.6%
same,Activity,[14],2.03%
same,Activity,[15],2.84%
same,Activity,[16],2.89%
same,Activity,[17],22.57%
same,Activity,[18],1.59%
same,Activity,[19],0.71%
same,viability at 0.04 µM,[20],93.1%
same,Activity,[21],5.11%
same,Activity,[22],2.23%
same,Activity,[23],18.32%
same,Activity,[24],0.73%
same,Activity,[25],13.95%
same,inhibition,[26],Active
same,inhibition,[27],Active
same,inhibition,[28],Active
same,inhibition,[29],Active
same,inhibition,[30],Active
same,inhibition,[31],Active
same,Activity,[32],Non-Toxic
same,Activity,[33],Non-Toxic
same,Activity,[34],Non-Toxic
